Measured values from US20240182910A1, “DRUG-REGULATABLE TRANSCRIPTION FACTORS” (Senti Biosciences, Inc., priority 2021, published 2024).

Assays:
NT (HdnoR-VP16) = NT (HdnoR-VP16) (Paenarthrobacter nicotinovorans, UniProt Q8GAF9); design: key to Response to inducer: T (transgene transcription): A, activation; DA, deactivation; DR, derepression; key to Response to inducer: TF (transcription factor): B, binding; D, dissociation; settings: NICE-OFF; PNIC (ONIC-PhCMVmin); cited from earlier work
NS (HdnoR-KRAB) = system: NS (HdnoR-KRAB); design: key to Response to inducer: T (transgene transcription): A, activation; DA, deactivation; DR, derepression; key to Response to inducer: TF (transcription factor): B, binding; D, dissociation; settings: NICE-ON; PNIC (PSV40-ONIC8); cited from earlier work
BIT (BirA-VP16) = BIT (BirA-VP16) (Escherichia coli, UniProt P06709); design: key to Response to inducer: T (transgene transcription): A, activation; DA, deactivation; DR, derepression; key to Response to inducer: TF (transcription factor): B, binding; D, dissociation; settings: PBIT3 (OBirA3-PhCMVmin); cited from earlier work
ArgR-VP16 = system: ArgR-VP16; design: key to Response to inducer: T (transgene transcription): A, activation; DA, deactivation; DR, derepression; key to Response to inducer: TF (transcription factor): B, binding; D, dissociation; settings: ART; PART (OARG-PhCMVmin); cited from earlier work
p65-TraR = system: p65-TraR; design: key to Response to inducer: T (transgene transcription): A, activation; DA, deactivation; DR, derepression; key to Response to inducer: TF (transcription factor): B, binding; D, dissociation; settings: O7x(tra box)-PhCMVmin; cited from earlier work
rcTA (rCymR-VP16) = system: rcTA (rCymR-VP16); design: key to Response to inducer: T (transgene transcription): A, activation; DA, deactivation; DR, derepression; key to Response to inducer: TF (transcription factor): B, binding; D, dissociation; settings: Cumate - reverse activator; PCR5 (OCuO6-PhCMVmin); cited from earlier work
cTA (CymR-VP16) = system: cTA (CymR-VP16); design: key to Response to inducer: T (transgene transcription): A, activation; DA, deactivation; DR, derepression; key to Response to inducer: TF (transcription factor): B, binding; D, dissociation; settings: Cumate - activator; PCR5 (OCuO6-PhCMVmin); cited from earlier work
CymR = CymR (Pseudomonas putida, UniProt O33453); design: key to Response to inducer: T (transgene transcription): A, activation; DA, deactivation; DR, derepression; key to Response to inducer: TF (transcription factor): B, binding; D, dissociation; settings: Cumate - repressor; PCuO (PCMV5-OCuO); cited from earlier work
tTAPIT3E-KRAB = system: tTAPIT3E-KRAB; design: key to Response to inducer: T (transgene transcription): A, activation; DA, deactivation; DR, derepression; key to Response to inducer: TF (transcription factor): B, binding; D, dissociation; settings: TET-OFFPIP-ONE-ON; OtetO7-OPIR3-OETR8-PhCMVmin; cited from earlier work
E-KRAB = system: E-KRAB; design: key to Response to inducer: T (transgene transcription): A, activation; DA, deactivation; DR, derepression; key to Response to inducer: TF (transcription factor): B, binding; D, dissociation; settings: E-ON; PETRON8 (PSV40-OETR8); cited from earlier work
tTAE-KRAB = system: tTAE-KRAB; design: key to Response to inducer: T (transgene transcription): A, activation; DA, deactivation; DR, derepression; key to Response to inducer: TF (transcription factor): B, binding; D, dissociation; settings: TET-OFFE-ON (NOT IF gate); OtetO7-OETR8-PhCMVmin; cited from earlier work
ET (E-VP16) = system: ET (E-VP16); design: key to Response to inducer: T (transgene transcription): A, activation; DA, deactivation; DR, derepression; key to Response to inducer: TF (transcription factor): B, binding; D, dissociation; settings: E-OFF; PETR (OETR-PhCMVmin); cited from earlier work
SCAE-KRAB = system: SCAE-KRAB; design: key to Response to inducer: T (transgene transcription): A, activation; DA, deactivation; DR, derepression; key to Response to inducer: TF (transcription factor): B, binding; D, dissociation; settings: QuoRexE-ON (NOT IF gate); OscbR-OETR8-PhCMVmin; cited from earlier work
REDOX (REX-VP16) = REDOX (REX-VP16) (Streptomyces coelicolor, UniProt Q9WX14); design: key to Response to inducer: T (transgene transcription): A, activation; DA, deactivation; DR, derepression; key to Response to inducer: TF (transcription factor): B, binding; D, dissociation; settings: PROP (OROP-PhCMVmin); cited from earlier work
TtgA1 (TtgR-VP16) = TtgA1 (TtgR-VP16) (Pseudomonas putida, UniProt Q9AIU0); design: key to Response to inducer: T (transgene transcription): A, activation; DA, deactivation; DR, derepression; key to Response to inducer: TF (transcription factor): B, binding; D, dissociation; settings: PEACE; PTtgR1 (OTtgR-PhCMVmin); cited from earlier work
SCA (ScbR-VP16) = system: SCA (ScbR-VP16); design: key to Response to inducer: T (transgene transcription): A, activation; DA, deactivation; DR, derepression; key to Response to inducer: TF (transcription factor): B, binding; D, dissociation; settings: QuoRex; PSCA (OscbR-PhCMVmin)PSPA (OpapRI-PhCMVmin); cited from earlier work
SCS (ScbR-KRAB) = system: SCS (ScbR-KRAB); design: key to Response to inducer: T (transgene transcription): A, activation; DA, deactivation; DR, derepression; key to Response to inducer: TF (transcription factor): B, binding; D, dissociation; settings: Q-ON; PSCAON8 (PSV40-OscbR8); cited from earlier work
SCAPIT3 = system: SCAPIT3; design: key to Response to inducer: T (transgene transcription): A, activation; DA, deactivation; DR, derepression; key to Response to inducer: TF (transcription factor): B, binding; D, dissociation; settings: QuoRexPIP-ON (NOT IF gate); OscbR8-OPIR3-PhCMVmin; cited from earlier work
mUTS (KRAB-HucR) = system: mUTS (KRAB-HucR); design: key to Response to inducer: T (transgene transcription): A, activation; DA, deactivation; DR, derepression; key to Response to inducer: TF (transcription factor): B, binding; D, dissociation; settings: UREX; PUREX8 (PSV40-OhucO8); cited from earlier work
VanA4 (VanR-KRAB) = system: VanA4 (VanR-KRAB); design: key to Response to inducer: T (transgene transcription): A, activation; DA, deactivation; DR, derepression; key to Response to inducer: TF (transcription factor): B, binding; D, dissociation; settings: VAC-ON; PVanON8 (PhCMV-OVanO8); cited from earlier work
VanA1 (VanR-VP16) = system: VanA1 (VanR-VP16); design: key to Response to inducer: T (transgene transcription): A, activation; DA, deactivation; DR, derepression; key to Response to inducer: TF (transcription factor): B, binding; D, dissociation; settings: VAC-OFF; P1VanO2 (OVanO2-PhCMVmin); cited from earlier work
[1] = system: nicotine-inducible transcription factor; settings: U87MG reporter cells co-transduced with constructs 12 and 13 (cell group G); nicotine 10 uM and 1 uM; flow cytometry day 5; FIG. 2 and FIG. 3
Description: U87MG cells transduced with a 4×ZF10-1 BS_minYBTATA:mCherry vector (referred to as “reporter cells”) were plated at 6e5/cells in a 6 well plate on day 0.
Cannabinoid-inducible transcription factor constructs included a first monomer construct (construct 14) composed of a first anti-CBD VHH (CA-14), a zinc finger protein domain of SEQ ID NO: 1, a nuclear localization signal of SEQ ID NO: 2, a cleavable linker, and a BFP tag, and a second monomer construct (construct 15) composed of a 3×FLAG-tagged nuclear localization signal (NLS) of SEQ ID NO: 2, a VPR transcriptional activation domain, a second anti-CBD VHH that is oligomerizable with the first anti-CBD VHH (DB-21), a cleavable linker, and a GFP tag.
Day 5, flow cytometry was performed, and the cells were gate on GFP/BFP

PIT3 (PIP-KRAB) = system: PIT3 (PIP-KRAB); design: key to Response to inducer: T (transgene transcription): A, activation; DA, deactivation; DR, derepression; key to Response to inducer: TF (transcription factor): B, binding; D, dissociation; settings: PIP-ON; PPIRON (PSV40-OPIR3); cited from earlier work
PIT (PIP-VP16) = system: PIT (PIP-VP16); design: key to Response to inducer: T (transgene transcription): A, activation; DA, deactivation; DR, derepression; key to Response to inducer: TF (transcription factor): B, binding; D, dissociation; settings: PIP-OFF; PPIR (OPIR-Phsp70 min); cited from earlier work

Chain of CymR (O33453 whole entry): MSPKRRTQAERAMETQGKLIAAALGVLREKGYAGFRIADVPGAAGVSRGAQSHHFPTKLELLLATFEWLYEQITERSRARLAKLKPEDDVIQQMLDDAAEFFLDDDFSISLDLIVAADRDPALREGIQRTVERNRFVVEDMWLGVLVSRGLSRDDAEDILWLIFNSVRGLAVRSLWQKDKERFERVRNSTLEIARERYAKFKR
Chain of BIT (BirA-VP16) (P06709 whole entry, added parts left off): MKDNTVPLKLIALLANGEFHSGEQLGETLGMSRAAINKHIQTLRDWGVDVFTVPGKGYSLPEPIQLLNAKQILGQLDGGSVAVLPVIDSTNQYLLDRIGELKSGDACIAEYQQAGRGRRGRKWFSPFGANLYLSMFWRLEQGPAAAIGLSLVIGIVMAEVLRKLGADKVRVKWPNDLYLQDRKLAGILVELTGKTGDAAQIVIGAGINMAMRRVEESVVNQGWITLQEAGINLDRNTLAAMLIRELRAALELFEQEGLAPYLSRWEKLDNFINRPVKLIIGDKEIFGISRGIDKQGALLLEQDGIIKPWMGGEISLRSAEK
Chain of NT (HdnoR-VP16) (Q8GAF9 whole entry, added parts left off): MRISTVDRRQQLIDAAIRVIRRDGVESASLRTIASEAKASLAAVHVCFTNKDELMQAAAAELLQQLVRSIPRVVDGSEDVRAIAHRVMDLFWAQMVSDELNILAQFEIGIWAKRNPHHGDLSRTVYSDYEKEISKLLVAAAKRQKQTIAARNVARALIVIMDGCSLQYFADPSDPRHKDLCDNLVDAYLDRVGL
Chain of TtgA1 (TtgR-VP16) (Q9AIU0 whole entry, added parts left off): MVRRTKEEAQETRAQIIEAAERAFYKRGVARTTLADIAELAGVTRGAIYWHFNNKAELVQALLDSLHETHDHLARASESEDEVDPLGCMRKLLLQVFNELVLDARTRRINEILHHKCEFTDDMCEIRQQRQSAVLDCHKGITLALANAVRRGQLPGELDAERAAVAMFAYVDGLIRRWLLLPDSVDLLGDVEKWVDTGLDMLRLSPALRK
Chain of REDOX (REX-VP16) (Q9WX14 whole entry, added parts left off): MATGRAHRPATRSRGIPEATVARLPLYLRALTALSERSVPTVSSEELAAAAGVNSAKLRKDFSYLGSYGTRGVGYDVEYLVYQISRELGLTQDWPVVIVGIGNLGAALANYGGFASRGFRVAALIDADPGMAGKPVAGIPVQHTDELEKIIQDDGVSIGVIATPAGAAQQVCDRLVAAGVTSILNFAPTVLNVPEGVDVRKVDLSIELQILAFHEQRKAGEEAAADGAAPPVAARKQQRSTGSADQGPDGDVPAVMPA

## CN1CCCC1c1ccc(O)nc1 (centres unmarked) [6-Hydroxy-nicotine]
NT (HdnoR-VP16)
  Response to inducer: T (transgene transcription): DA
  Response to inducer: TF (transcription factor): D
NS (HdnoR-KRAB)
  Response to inducer: T (transgene transcription): DR
  Response to inducer: TF (transcription factor): D

## O=C(O)CCCC[C@@H]1SC[C@@H]2NC(=O)N[C@@H]21 [Biotin]
BIT (BirA-VP16)
  Response to inducer: T (transgene transcription): A
  Response to inducer: TF (transcription factor): B

## N=C(N)NCCC[C@H](N)C(=O)O [Construct 1-Arginine, 1-Arginine]
ArgR-VP16
  Response to inducer: T (transgene transcription): A
  Response to inducer: TF (transcription factor): B

## CCCCCC(=O)CC(=O)N[C@H]1CCOC1=O [Construct 3-Oxo-C8-HSL, 3-Oxo-C8-HSL]
p65-TraR
  Response to inducer: T (transgene transcription): A
  Response to inducer: TF (transcription factor): B

## CC(C)c1ccc(C(=O)O)cc1 [Cumate]
rcTA (rCymR-VP16)
  Response to inducer: T (transgene transcription): A
  Response to inducer: TF (transcription factor): B
cTA (CymR-VP16)
  Response to inducer: T (transgene transcription): DA
  Response to inducer: TF (transcription factor): D
CymR
  Response to inducer: T (transgene transcription): DR
  Response to inducer: TF (transcription factor): D

## CC[C@H]1OC(=O)[C@H](C)[C@@H](O[C@H]2C[C@@](C)(OC)[C@@H](O)[C@H](C)O2)[C@H](C)[C@@H](O[C@@H]2O[C@H](C)C[C@H](N(C)C)[C@H]2O)[C@](C)(O)C[C@@H](C)C(=O)[C@H](C)[C@@H](O)[C@]1(C)O [Erythromycin]
tTAPIT3E-KRAB
  Response to inducer: T (transgene transcription): DR
  Response to inducer: TF (transcription factor): D
E-KRAB
  Response to inducer: T (transgene transcription): DR
  Response to inducer: TF (transcription factor): D
tTAE-KRAB
  Response to inducer: T (transgene transcription): DR
  Response to inducer: TF (transcription factor): D
ET (E-VP16)
  Response to inducer: T (transgene transcription): DA
  Response to inducer: TF (transcription factor): D
SCAE-KRAB
  Response to inducer: T (transgene transcription): DR
  Response to inducer: TF (transcription factor): D

## NC(=O)C1=CN([C@@H]2O[C@H](COP(=O)(O)OP(=O)(O)OC[C@H]3O[C@@H](n4cnc5c(N)ncnc54)[C@H](O)[C@@H]3O)[C@@H](O)[C@H]2O)C=CC1 [NADH]
REDOX (REX-VP16)
  Response to inducer: T (transgene transcription): DA
  Response to inducer: TF (transcription factor): D

## O=C(CCc1ccc(O)cc1)c1c(O)cc(O)cc1O [Phloretin]
TtgA1 (TtgR-VP16)
  Response to inducer: T (transgene transcription): DA
  Response to inducer: TF (transcription factor): D

## CC(C)CCCC[C@@H](O)[C@@H]1C(=O)OC[C@H]1CO [SCB1]
SCA (ScbR-VP16)
  Response to inducer: T (transgene transcription): DA
  Response to inducer: TF (transcription factor): D
SCS (ScbR-KRAB)
  Response to inducer: T (transgene transcription): DR
  Response to inducer: TF (transcription factor): D
SCAPIT3
  Response to inducer: T (transgene transcription): DA
  Response to inducer: TF (transcription factor): D
SCAE-KRAB
  Response to inducer: T (transgene transcription): DA
  Response to inducer: TF (transcription factor): D

## O=c1[nH]c(=O)c2[nH]c(=O)[nH]c2[nH]1 [Uric acid]
mUTS (KRAB-HucR)
  Response to inducer: T (transgene transcription): DR
  Response to inducer: TF (transcription factor): D

## COc1cc(C(=O)O)ccc1O [Vanillic acid]
VanA4 (VanR-KRAB)
  Response to inducer: T (transgene transcription): DR
  Response to inducer: TF (transcription factor): D
VanA1 (VanR-VP16)
  Response to inducer: T (transgene transcription): DA
  Response to inducer: TF (transcription factor): D

## CN1CCCC1c1cccnc1 (centres unmarked) [nicotine]
[1]
  reporter (mCherry) expression: percent of mCherry positive cells and mean fluorescent intensity: induced concentration-dependent reporter expression

## Pristinamycin I
tTAPIT3E-KRAB
  Response to inducer: T (transgene transcription): DR
  Response to inducer: TF (transcription factor): D
PIT3 (PIP-KRAB)
  Response to inducer: T (transgene transcription): DR
  Response to inducer: TF (transcription factor): D
SCAPIT3
  Response to inducer: T (transgene transcription): DR
  Response to inducer: TF (transcription factor): D
PIT (PIP-VP16)
  Response to inducer: T (transgene transcription): DA
  Response to inducer: TF (transcription factor): D
